Laboratory results taken from patent US20250152585A1, “PHARMACEUTICAL COMPOUND” (Duke Street Bio Limited, priority 2022, published 2025).

How the values were obtained:
[1] = molecular target: T1, full length N-terminally FLAG-tagged PARP1 (Homo sapiens, UniProt P09874); test: PARP1 biochemical DELFIA assay (auto-PARylation); set-up: recombinant full length human N-terminally FLAG-tagged PARP1; details: binned IC50, biochemical auto-PARylation assay
[2] = molecular target: T1, full length N-terminally FLAG-tagged PARP1; test: PARP1 probe displacement HTRF assay; details: probe displacement HTRF; for Selectivity: PARP1 over PARP2, ratio Kd (PARP2)/Kd (PARP1); for Kd: read-out: PARP1 HTRF, binned Kd
[3] = molecular target: T2, N-terminally FLAG-tagged PARP2 (amino acids 1-583) (Homo sapiens, UniProt Q9UGN5); test: PARP2 probe displacement HTRF assay; type: binding; details: binned Kd, probe displacement HTRF
T2 construct: N-terminally FLAG-tagged PARP2 (amino acids 1-583)
Experimental: Data analysis was performed identical as for PARP1.

T1 sequence (P09874 whole entry): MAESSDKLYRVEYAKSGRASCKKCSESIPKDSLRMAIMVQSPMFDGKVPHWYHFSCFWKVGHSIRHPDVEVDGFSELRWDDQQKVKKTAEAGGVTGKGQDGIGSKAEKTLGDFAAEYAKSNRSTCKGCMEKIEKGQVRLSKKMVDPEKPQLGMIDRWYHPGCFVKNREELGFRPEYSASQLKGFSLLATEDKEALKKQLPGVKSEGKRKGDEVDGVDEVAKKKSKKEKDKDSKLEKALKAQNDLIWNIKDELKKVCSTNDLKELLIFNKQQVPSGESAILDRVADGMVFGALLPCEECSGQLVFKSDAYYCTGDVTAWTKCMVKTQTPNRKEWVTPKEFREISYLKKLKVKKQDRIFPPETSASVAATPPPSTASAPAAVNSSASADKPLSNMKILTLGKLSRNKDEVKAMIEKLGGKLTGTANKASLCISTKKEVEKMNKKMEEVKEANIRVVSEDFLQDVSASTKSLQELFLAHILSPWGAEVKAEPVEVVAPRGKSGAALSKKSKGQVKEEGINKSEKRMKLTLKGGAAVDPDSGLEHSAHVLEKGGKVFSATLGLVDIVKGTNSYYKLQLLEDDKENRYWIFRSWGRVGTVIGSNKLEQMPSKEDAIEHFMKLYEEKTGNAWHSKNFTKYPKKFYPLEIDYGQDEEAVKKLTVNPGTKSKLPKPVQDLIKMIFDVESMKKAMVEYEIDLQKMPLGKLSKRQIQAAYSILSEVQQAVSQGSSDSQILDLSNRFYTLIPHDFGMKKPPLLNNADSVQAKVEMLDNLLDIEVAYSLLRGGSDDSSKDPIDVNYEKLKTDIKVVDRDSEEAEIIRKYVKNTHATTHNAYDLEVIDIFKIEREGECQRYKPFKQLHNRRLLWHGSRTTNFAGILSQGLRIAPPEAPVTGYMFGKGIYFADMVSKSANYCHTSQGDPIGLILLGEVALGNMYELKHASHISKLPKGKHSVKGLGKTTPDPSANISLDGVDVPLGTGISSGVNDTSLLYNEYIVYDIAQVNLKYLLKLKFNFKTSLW
T2 sequence (Q9UGN5 whole entry, the tested form may be a part): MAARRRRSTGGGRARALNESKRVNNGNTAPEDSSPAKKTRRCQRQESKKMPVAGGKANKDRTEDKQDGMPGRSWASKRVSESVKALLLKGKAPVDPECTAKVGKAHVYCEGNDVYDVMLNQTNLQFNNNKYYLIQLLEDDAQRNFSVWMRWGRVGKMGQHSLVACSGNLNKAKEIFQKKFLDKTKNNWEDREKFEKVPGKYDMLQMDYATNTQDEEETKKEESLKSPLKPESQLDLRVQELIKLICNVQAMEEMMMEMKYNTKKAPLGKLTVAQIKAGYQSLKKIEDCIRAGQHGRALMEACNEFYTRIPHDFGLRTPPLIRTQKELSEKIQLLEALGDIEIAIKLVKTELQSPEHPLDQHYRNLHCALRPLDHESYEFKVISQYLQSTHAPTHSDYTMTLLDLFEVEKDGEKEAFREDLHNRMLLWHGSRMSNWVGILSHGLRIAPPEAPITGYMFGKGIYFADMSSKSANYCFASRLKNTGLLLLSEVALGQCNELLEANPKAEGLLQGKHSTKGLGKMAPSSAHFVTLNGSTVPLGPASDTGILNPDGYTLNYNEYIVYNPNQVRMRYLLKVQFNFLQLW

Compound | IC50 [1] [µM] | Selectivity [2] | Kd [2] [µM] | Kd [3] [µM]
CNC(=O)c1ccc(N2CCC(N3CCCC(O)(c4nc5ccccc5c(=O)[nH]4)C3)CC2)cn1 (single isomer, unassigned) [Compound 327b] | 0.1 to 1 | − (− indicates a value of less than 10) | 0.1 to 1 | > 10
CNC(=O)c1ccc(N2CCC(N3CCC(F)(c4nc5ccccc5c(=O)[nH]4)C3)CC2)cn1 (single isomer, unassigned) [Compound 328a] | 0.1 to 1 | + (+ indicates a value of 10 to less than 50) | 0.1 to 1 | > 10
CNC(=O)c1ccc(N2CCC(N3CCC(F)(c4nc5ccccc5c(=O)[nH]4)C3)CC2)cn1 (single isomer, unassigned) [Compound 328b] | 0.01 to 0.1 | +++ (+++ indicate a value of at least 100) | 0.01 to 0.1 | > 10
CNC(=O)c1ccc(N2CCC(N3CCC(c4cc5c(F)cncc5c(=O)[nH]4)C3)CC2)cn1 (single isomer, unassigned) [Compound 331a] | < 0.01 | +++ (+++ indicate a value of at least 100) | < 0.01 | 0.1 to 1
CNC(=O)c1ccc(N2CCC(N3CCC(c4cc5c(F)cncc5c(=O)[nH]4)C3)CC2)cn1 (single isomer, unassigned) [Compound 331b] | 0.01 to 0.1 | +++ (+++ indicate a value of at least 100) | 0.01 to 0.1 | 1 to 10
CCc1ccc(C2CCN(C3CCN(c4ccc(C#N)cn4)CC3)C2)[nH]c1=O (single isomer, unassigned) [Compound 332b] | < 0.01 | +++ (+++ indicate a value of at least 100) | < 0.01 | 1 to 10
CC(=O)NC(=O)c1ccc(N2CCC(N3CCC(c4cc5ccccc5c(=O)[nH]4)C3)CC2)cn1 (single isomer, unassigned) [Compound 333a] | < 0.01 | +++ (+++ indicate a value of at least 100) | < 0.01 | 0.1 to 1
CC(=O)NC(=O)c1ccc(N2CCC(N3CCC(c4cc5ccccc5c(=O)[nH]4)C3)CC2)cn1 (single isomer, unassigned) [Compound 333b] | 0.01 to 0.1 | +++ (+++ indicate a value of at least 100) | 0.01 to 0.1 | 1 to 10
CCc1ccc(C2CCN(C3CCN(c4ccc(C(=O)NC5CC5)nc4)CC3)C2)[nH]c1=O (single isomer, unassigned) [Compound 338a] | < 0.01 | +++ (+++ indicate a value of at least 100) | < 0.01 | 0.1 to 1
CCc1ccc(C2CCN(C3CCN(c4ccc(C(=O)NC5CC5)nc4)CC3)C2)[nH]c1=O (single isomer, unassigned) [Compound 338b] | 0.01 to 0.1 | ++ (++ indicates a value of 50 to less than 100) | 0.01 to 0.1 | 1 to 10
O=C(NC1CC1)c1ccc(N2CCC(N3CCC(c4cc5cccc(F)c5c(=O)[nH]4)C3)CC2)cn1 (single isomer, unassigned) [Compound 339b] | < 0.01 | +++ (+++ indicate a value of at least 100) | < 0.01 | 0.1 to 1
N#Cc1ccc(N2CCC(N3CCC(c4cc5cccc(F)c5c(=O)[nH]4)C3)CC2)nc1 (single isomer, unassigned) [Compound 340a] | < 0.01 | +++ (+++ indicate a value of at least 100) | < 0.01 | 0.1 to 1
N#Cc1ccc(N2CCC(N3CCC(c4cc5cccc(F)c5c(=O)[nH]4)C3)CC2)nc1 (single isomer, unassigned) [Compound 340b] | 0.01 to 0.1 | + (+ indicates a value of 10 to less than 50) | 0.01 to 0.1 | 0.1 to 1
CC(=O)NC(=O)c1ccc(N2CCC(N3CCC(c4cc5ccccc5c(=O)[nH]4)C3)CC2)cc1 (single isomer, unassigned) [Compound 341a] | < 0.01 | +++ (+++ indicate a value of at least 100) | < 0.01 | 0.1 to 1
CC(=O)NC(=O)c1ccc(N2CCC(N3CCC(c4cc5ccccc5c(=O)[nH]4)C3)CC2)cc1 (single isomer, unassigned) [Compound 341b] | 0.01 to 0.1 | + (+ indicates a value of 10 to less than 50) | 0.01 to 0.1 | 0.1 to 1
CS(=O)(=O)NC(=O)c1ccc(N2CCC(N3CCC(c4cc5ccccc5c(=O)[nH]4)C3)CC2)cc1 (single isomer, unassigned) [Compound 342a] | 0.1 to 1 | − (− indicates a value of less than 10) | 0.1 to 1 | 0.1 to 1
CS(=O)(=O)NC(=O)c1ccc(N2CCC(N3CCC(c4cc5ccccc5c(=O)[nH]4)C3)CC2)cc1 (single isomer, unassigned) [Compound 342b] | < 0.01 | + (+ indicates a value of 10 to less than 50) | < 0.01 | 0.01 to 0.1

Compound | IC50 [1] [µM] | Selectivity [2] | Kd [2] [µM] | Kd [3] [µM]
CNC(=O)c1ccc(N2CCC(N3CCC(c4cc5ncc(Cl)cc5c(=O)[nH]4)C3)CC2)c(F)n1 (single isomer, unassigned) [Compound 344a] | < 0.01 | +++ (+++ indicate a value of at least 100) | < 0.01 | > 10
CNC(=O)c1ccc(N2CCC(N3CCC(c4cc5cccc(F)c5c(=O)[nH]4)C3)CC2)c(C#N)c1 (single isomer, unassigned) [Compound 345a] | < 0.01 | +++ (+++ indicate a value of at least 100) | < 0.01 | 0.1 to 1
CNS(=O)(=O)c1ccc(N2CCC(N3CCC(c4cc5ccccc5c(=O)[nH]4)C3)CC2)cc1 (single isomer, unassigned) [Compound 346a] | < 0.01 | +++ (+++ indicate a value of at least 100) | < 0.01 | 1 to 10
O=C(NC1CC1)c1ccc(N2CCC(N3CCC(c4cc5cccc(F)c5c(=O)[nH]4)C3)CC2)c(F)n1 (single isomer, unassigned) [Compound 349a] | < 0.01 | +++ (+++ indicate a value of at least 100) | < 0.01 | > 10
CCc1ccc(C2CCN(C3CCN(c4ccc(C(=O)NC)cc4)CC3)C2)[nH]c1=O (single isomer, unassigned) [Compound 355a] | 0.1 to 1 | − (− indicates a value of less than 10) | 0.1 to 1 | 1 to 10
CCc1ccc(C2CCN(C3CCN(c4ccc(C(=O)NC)cc4)CC3)C2)[nH]c1=O (single isomer, unassigned) [Compound 355b] | < 0.01 | +++ (+++ indicate a value of at least 100) | < 0.01 | 0.1 to 1
N#Cc1ccc(N2CCC(N3CCC(c4cc5cccc(F)c5c(=O)[nH]4)C3)CC2)c(F)c1 (single isomer, unassigned) [Compound 356b] | 0.1 to 1 | + (+ indicates a value of 10 to less than 50) | 0.1 to 1 | 1 to 10
CNC(=O)c1ccc(N2CCC(N3CCC(c4cc5cc(O)ccc5c(=O)[nH]4)C3)CC2)cn1 (single isomer, unassigned) [Compound 357b] | 0.01 to 0.1 | +++ (+++ indicate a value of at least 100) | < 0.01 | 1 to 10
CCc1cc(C)c(C2CCN(C3CCN(c4ccc(C(=O)NC)nc4)CC3)C2)[nH]c1=O (single isomer, unassigned) [Compound 363b] | < 0.01 | +++ (+++ indicate a value of at least 100) | < 0.01 | 1 to 10
CCc1ccc(C2CCN(C3CCN(c4ccc(C(=O)NC)cc4F)CC3)C2)[nH]c1=O (single isomer, unassigned) [Compound 366b] | < 0.01 | ++ (++ indicates a value of 50 to less than 100) | < 0.01 | 0.1 to 1
CNC(=O)c1ccc(N2CCC(N3CCC(c4[nH]c(=O)c5cc(F)ccc5c4F)C3)CC2)cn1 (single isomer, unassigned) [Compound 370a] | < 0.01 | +++ (+++ indicate a value of at least 100) | < 0.01 | 0.1 to 1
CNC(=O)c1ccc(N2CCC(N3CCC(c4[nH]c(=O)c5cc(F)ccc5c4F)C3)CC2)cn1 (single isomer, unassigned) [Compound 370b] | < 0.01 | ++ (++ indicates a value of 50 to less than 100) | < 0.01 | 0.01 to 0.1
CNC(=O)c1ccc(N2CCC(N3CCC(c4cc5cccc(F)c5c(=O)[nH]4)C3)CC2)c(F)c1 (single isomer, unassigned) [Compound 371a] | < 0.01 | +++ (+++ indicate a value of at least 100) | < 0.01 | 0.01 to 0.1
CNC(=O)c1ccc(N2CCC(N3CCC(c4cc5cccc(F)c5c(=O)[nH]4)C3)CC2)c(F)c1 (single isomer, unassigned) [Compound 371b] | 0.01 to 0.1 | ++ (++ indicates a value of 50 to less than 100) | 0.01 to 0.1 | 1 to 10
O=C(NC1CC1)c1ccc(N2CCC(N3CCC(c4cc5ncc(F)cc5c(=O)[nH]4)C3)CC2)cn1 (single isomer, unassigned) [Compound 372a] | < 0.01 | + (+ indicates a value of 10 to less than 50) | < 0.01 | 0.1 to 1
O=C(NC1CC1)c1ccc(N2CCC(N3CCC(c4cc5ncc(F)cc5c(=O)[nH]4)C3)CC2)cn1 (single isomer, unassigned) [Compound 372b] | < 0.01 | +++ (+++ indicate a value of at least 100) | < 0.01 | 0.01 to 0.1
